Measurements as given in patent US20150297619A1, “METHODS AND COMPOSITIONS FOR PRESERVING THE MUCOSAL BARRIER” (priority 2014, published 2015).

Legend:
intestinal villi = assay: Morphological analysis of intestinal villi after ex vivo ischemia (Van Gieson/hematoxylin); set-up: species or system rat; conditions: jejunum and ileum after 2 hrs ex vivo ischemia
Method: After the two-hour ischemic incubation, intestinal pieces from segments 2 (jejunum) and 7 (ileum) were embedded in O.C.T. (Tissue Tek, Torrance, Calif.) and snap frozen in t-methyl butane in liquid nitrogen. Intestine samples from segments 2 and 7 (for protease analysis) and segment 7 (for immunoblots) were snap frozen and stored for subsequent homogenization. Morphological Analysis and TUNEL Labeling—Intestinal segments frozen in O.C.T. were cut into 5 μm sections. Sections were fixed using ice-cold methanol (8 min at −20° C.) and immediately washed four times in distilled water. Nuclei were stained by incubating sections in freshly mixed Weigert's Iron Hematoxylin A and B (Electron Microscopy Science, Hatfield, Pa.) (10 min) followed by rinsing thoroughly with water. Collagen fibers were labeled by incubating (2 min) in Van Gieson's Solution (Electron Microscopy Science). Prior to mounting, all slides were dehydrated (70, 95, 100% ethanol) and cleaned with xylene. After air-drying overnight, sections were mounted using Hard Set Mounting Media (Vector Laboratories, Burlingame, Calif.). Digital images were captured with a 20× objective (numerical aperture 0.5) and digitally montaged together after background subtraction. The separation of the mucosal epithelial layer was quantified for groups that had intact villi following the two hour ischemic period. Images were blinded and the distance between the mucosal epithelial layer and the lamina propria was measured over five lengths across a minimum of 6 villi.

[1] = test system: ischemic small intestine segments (jejunum to ileum); assay: Ex vivo intestinal ischemia: transmural fluorescein transport across wall of flushed intestinal segments; set-up: species or system rat
From the text: Intestinal Ischemia—Since intestinal properties are non-homogenous, the transmural permeability was investigated over the entire length of the jejunum and ileum. Due to physical constraints of the small intestine anatomy, it is not feasible to simultaneously analyze permeability from multiple segments in vivo. Therefore, an ex vivo approach similar to previously published studies was designed to measure permeability along the length of the small intestine.
A midline incision was made to expose the intestine in anesthetized rats. The proximal end of the jejunum (approximately 5 cm distal from the ligament of Treitz) was cannulated with a female luer to barb tube connector (⅛″ inner diameter). The intestine was removed and placed in saline immediately before euthanasia. In order to focus the analysis on permeability of the intestinal wall during ischemia in the absence of luminal contents (including the digestive proteases or cytotoxic factors from food), the lumen of the intestine was flushed with 40 ml saline using pulsatile pressure. Visual examination confirmed all solid contents were removed. Next, the intestine was cut into eight equal length segments (˜8 cm) sequentially ordered from the proximal jejunum (position 1) to the distal ileum (position 8). Both ends of each segment were cannulated with Female Luer to Barb tube connectors (thus allowing entry and exit points from the intestinal lumen to be sealed completely), secured with 4-0 suture, and the exterior portion of one adaptor on each segment sealed with clay.
To determine the transmural permeability of the intestine, all 8 segments from each animal were filled with a low molecular weight tracer as a sensitive measure of early barrier breakdown prior to the initiation of ischemia, fluorescein (332 Da M.W., 20 μg/ml from 5 mg/ml stock in ethanol; 0.308 osm/L; Sigma-Aldrich, St. Louis, Mo.) mixed with saline, glucose (100 mg/ml in saline; 0.550 moles/L; 0.863 osm/L, Sigma-Aldrich), the non-metabolizing glucose analog mannitol (100 mg/ml in saline; 0.550 moles/L; 0.863 osm/L), the serine protease inhibitor tranexamic acid (31 mg/ml in saline; 0.200 moles/L; 0.508 osm/L, Sigma-Aldrich), the MMP inhibitor doxycycline hyclate (1 mg/ml in saline; 1.955×10^−3 moles/L; 0.310 osm/L, Sigma-Aldrich), or the MMP inhibitor GM 6001 [38] (1 μg/ml in saline from 1 mg/ml stock in DMSO; 2.57×10^−6 moles/L; 0.308 osm/L, Millipore, Billerica, Md.). […]
Sealed segments were rinsed in saline, individually placed in 15 ml conical tubes containing 6 ml saline, and incubated at 37° C. for 2 hours to simulate ischemic conditions. […] Plates were read in a plate reader (FilterMax F-5 Multi-mode, Molecular Devices, Sunnyvale, Calif.) for concentration of fluorescein (excitation 494/emission 521) to measure diffusion across the wall of the intestine.
Permeability Analysis—To determine the fluorescein transport across the ischemic intestinal wall, the fluorescence at time 0 was subtracted from fluorescence values at later time points to correct for background, and fluorescence values were corrected to account for the volume reduction due to sampling during the experiment. The RFU measurements were converted to equivalent moles by using the linear relationship between concentration and fluorescein fluorescence (not shown, R^2=0.999). The transport of fluorescein across the wall (measured in moles, per time) was computed as the change in fluorescence over a 30 min interval divided by 30 min.

~20-kDa serine proteases = assay: Gelatin gel zymography of plasma, lung and intestine samples renatured with serine protease inhibitors; format: biochemical, rat; conditions: 75 μmol/L ANGD or 100 lmol/L TLCK in renaturing and developing buffers, lung, intestine samples
Method: Protease Activity—Gelatin gel zymography was completed as previously described. When present, the luminal contents from the jejunal tissue were discarded by gentle compression of the intestine before homogenization to prevent excess digestion of the gelatin substrate in the gels by luminal proteases. Tissues from shocked animals (flushed and nonflushed) as well as controls were rinsed and blotted dry before weighing. Protein concentration was determined using the BCA kit before mixing each sample in a 1:1 ratio with loading dye (containing sodiumdodecyl sulfate (SDS), but no reducing agent). Two microgram protein/lane of intestine or 20 μg protein/lane of lung homogenates were loaded. Plasma (0.5 μL) was mixed with 2 μL loading dye and loaded into each lane.
Samples were separated by gel electrophoresis in 11% sodiumdodecyl sulfate polyacrylamide gel electrophoresis (SDS-PAGE) gelatin impregnated gels. Upon separation, gel proteins were renatured in 2.5% Triton-X 100 in water (49, 15 min) before incubation at 37° C. overnight in developing buffer (0.05 mol/L Tris base, 0.2 mol/L NaCl, 4 μmol/L ZnCl2, 5 mmol/L CaCl2.2H2O). Gels were then fixed and stained (50% methanol, 10% acetic acid, 40% water, and 0.25% Coomassie blue solution) for 3 h, destained in water to achieve appropriate contrast before digital analysis (ImageJ).
To confirm that the ˜20-kDa bands were serine proteases, gels were renatured and developed in the aforementioned buffers with the addition of either 75 μmol/L serine protease inhibitor ANGD (nafamostat mesilate) or 100 lmol/L trypsin inhibitor tosyl-lysine chloromethyl ketone (TLCK) and compared to duplicate gels that were subject to the standard renaturation procedure.

experimental shock = conditions: cited from earlier work
20 kDa serine proteases = assay: Gelatin gel zymography of pre-ischemic intestinal homogenates renatured with inhibitor: serine protease bands; format: biochemical, rat; conditions: inhibitor in renaturing and developing buffer: tranexamic acid 20 mM, doxycycline 1 mg/ml, GM-6001 1 ug/ml
Method: Gelatin Gel Zymography—Segments 2 and 7 from pre-ischemic intestines were homogenized (0.1 g tissue/ml homogenization buffer; PBS pH 7.4 with 0.5% hexadecyltrimethyl bromide) and centrifuged at 1.4×10^4 g for 20 minutes. Supernatants were stored at −80° C. until samples were processed.
To assess the proteolytic activities of individual proteases in intestinal tissue samples, sample volumes of 1 μl (with 2 μg of protein) were separated by gel electrophoresis in SDS-PAGE gels containing 80 μg/ml gelatin. […] The molecular weights of the proteases were estimated by use of a standard protein ladder (Invitrogen). Gels were digitized and bands were analyzed by densitometry in ImageJ (rsbweb.nih.gov/ij/).
These gels were compared to a concurrently run gel processed normally.

[2] = test system: MMP-9 dimers, pro-MMP-2, MMP-2, MMP-1 or MMP-3; assay: Gelatin gel zymography of pre-ischemic intestinal homogenates renatured with inhibitor: MMP bands; format: biochemical, rat; conditions: inhibitor in renaturing and developing buffer: tranexamic acid 20 mM, doxycycline 1 mg/ml, GM-6001 1 ug/ml
Method: Gelatin Gel Zymography—Segments 2 and 7 from pre-ischemic intestines were homogenized (0.1 g tissue/ml homogenization buffer; PBS pH 7.4 with 0.5% hexadecyltrimethyl bromide) and centrifuged at 1.4×10^4 g for 20 minutes. Supernatants were stored at −80° C. until samples were processed. To assess the proteolytic activities of individual proteases in intestinal tissue samples, sample volumes of 1 μl (with 2 μg of protein) were separated by gel electrophoresis in SDS-PAGE gels containing 80 μg/ml gelatin. […] The molecular weights of the proteases were estimated by use of a standard protein ladder (Invitrogen). Gels were digitized and bands were analyzed by densitometry in ImageJ (rsbweb.nih.gov/ij/). […] These gels were compared to a concurrently run gel processed normally.

[3] = test system: mucin 13, occludin, and E-cadherin; assay: Immunoblots of epithelial barrier proteins in post-ischemic intestinal homogenates (segment 7); set-up: species or system rat; conditions: ileum segment 7, two hour ex vivo ischemia
Method: Immunoblotting—To determine whether selected epithelial barrier proteins were degraded during ischemia, pre- and post-ischemic intestinal tissue homogenates (segment 7) were analyzed for relative levels of mucin 13, occludin, and E-cadherin.
Tissues were homogenized for immunoblot analysis in buffer (CelLytic, Sigma-Aldrich) with protease inhibitor cocktail (HALT, Thermo Scientific, 1:100 dilution) and centrifuged (1×10^4 g, 20 min). Protein concentration in supernatants was determined (BCA, ThermoScientific). To separate proteins by gel electrophoresis, 30 μg of protein/well were loaded in 8 or 12% resolving gels with 4% stacking gels and transferred to nitrocellulose membranes (Bio-Rad, Hercules, Calif.). Membranes were blocked for one hour with either 5% bovine serum albumin (BSA) or 5% nonfat milk in tris-buffered saline with 0.5% Tween-20 (TBS-T). Primary antibodies diluted in 1% BSA or 1% nonfat milk against mucin 13 (1:1000, extracellular domain, sc-66973 Santa Cruz Biotechnology, Santa Cruz, Calif.), E-cadherin (1:1000, intracellular domain, 33-4000, Invitrogen), occludin (1:1000, intracellular domain, 33-1500, Invitrogen), pancreatic trypsin (1:1000, sc-137077 Santa Cruz Biotechnology), or β-actin (1:1000, sc-130301, Santa Cruz Biotechnology) were incubated overnight at 4° C. After incubation, membranes were washed with TBS-T (3×, 10 min) before addition of goat anti-rabbit or rabbit anti-mouse secondary antibodies (Santa Cruz Biotechnology) diluted 1:1000 in TBS-T. Following secondary antibody incubation (60 min), the membranes were washed with TBS-T (3×) and developed.

MMP-1/9 = assay: Plasma MMP-1/9 activity by plate zymography after hemorrhagic shock; format: in vivo, rat; conditions: compared to the HS+SAL animals
Method: Enzyme and Protease Activity Measurements—All microplate assays were performed in duplicate in 96 well black-sided flat bottom polystyrene plates (Corning, New York, N.Y.) and measured in a microplate reader (FilterMax F-5 Multi-mode, Molecular Devices, Sunnyvale, Calif.). Plasma MMP-1/9 activity was also detected by plate zymography using a protease specific substrate (American Peptide Company, Sunnyvale, Calif.).

Q: What does the source list for `OC[C@@H](O)[C@@H](O)[C@H](O)[C@H](O)CO` [Mannitol, mannitol]?
A: intestinal villi structure (intestinal villi): nor preserved villi structure; fluorescein transport across the wall of the intestine ([1]; ex vivo, treatment in lumen, two-hour ischemic period): neither prevented fluorescein penetration

Q: Which “serine protease (~20 kDa) band intensities” value (~20-kDa serine proteases) does the source give for tosyl-lysine chloromethyl ketone [TLCK] here?
A: substantial decrease

Q: And the “serine protease (~20 kDa) band intensities” value (~20-kDa serine proteases; listed as tosyllysine chloromethyl ketone hydrochloride)?
A: disappeared

Q: Which results are given for `CS(=O)(=O)O.CS(=O)(=O)O.N=C(N)Nc1ccc(C(=O)Oc2ccc3cc(C(=N)N)ccc3c2)cc1` [ANGD, 6-amidino-2-naphthyl p-guanidinobenzoate dimethanesulfonate]?
A: microhemorrhages in the intestine (experimental shock; enteral treatment in the small intestine): reduced microhemorrhages in the intestine; MPO infiltration into the lungs (experimental shock; enteral, similar model of HS (Altshuler et al. 2012)): attenuate MPO infiltration into the lungs; serine protease (~20 kDa) band intensities (~20-kDa serine proteases; dimethanesulfonate): substantial decrease; serine protease (~20 kDa) band intensities (~20-kDa serine proteases; listed as nafamostat mesilate, dimethanesulfonate): disappeared

Q: With `CNC(=O)[C@H](Cc1c[nH]c2ccccc12)NC(=O)[C@@H](CC(=O)NO)CC(C)C` [GM 6001, N-[(2R)-2-(hydroxamidocarbonylmethyl)-4-methylpentanoyl]-L-tryptophan methylamide] as the compound, how does the intestinal villi structure (intestinal villi) read?
A: did not prevent the villi destruction

Q: What about the “transmural permeability, 90-120 min period” value ([1]; ex vivo ischemia, inhibitor in lumen without glucose) of the same compound?
A: more effective at reducing the transmural permeability compared to either doxycycline or tranexamic acid

Q: And the “fluorescein transport rates, 30-60 min and 60-90 min periods” value ([1]; ex vivo ischemia, inhibitor in lumen without glucose, vs saline)?
A: significantly decreased compared to the saline treated intestines

Q: What about the “20 kDa serine protease activity bands” value (20 kDa serine proteases) of the same compound?
A: serine protease bands remained in all gels

Q: What about the “MMP gelatinase activity bands (220 kDa MMP-9 dimers, pro-MMP-2, MMP-2, 50 kDa band)” value [2] of the same compound?
A: reduced or eliminated

Q: And the “E-cadherin levels (immunoblot)” value [3]?
A: neither doxycycline nor GM 6001 were effective

Q: What about the “mucin 13 levels (immunoblot)” value [3] of the same compound?
A: neither doxycycline nor GM 6001 were effective

Q: And the “occludin levels (immunoblot)” value [3]?
A: neither doxycycline nor GM 6001 were effective

Q: For `C[C@H]1c2cccc(O)c2C(=O)C2=C(O)[C@]3(O)C(=O)C(C(N)=O)=C(O)[C@@H](N(C)C)[C@@H]3[C@@H](O)[C@@H]21` [doxycycline], which “plasma MMP-1/9 activity reduction” value (MMP-1/9) is on record?
A: 85%
